Laboratory results reported in patent US6706663B2, “Herbicidal 3-heterocyclic substituted benzisothiazole and benzisoxazole compounds” (Wyeth, priority 2000, dated 2004).

Tests used:
[1] = test system: ABUTH (Abutilon theophrasti); test: Postemergence herbicidal evaluation; type: in vivo, Medic.; conditions: postemergence
Procedure, shortened: (§1)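 Seedlings grown for about two weeks were sprayed postemergence and then kept under standard greenhouse care. Injury was rated visually 4–5 weeks after treatment on a 0–9 scale against untreated controls, and ratings from repeat tests were averaged.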

[2] = test system: GALAP (Galium aparine); test: Postemergence herbicidal evaluation; type: in vivo; conditions: postemergence
Procedure, shortened: as §1

[3] = test system: IPOHE (Ipomoea hederacea); test: Postemergence herbicidal evaluation; type: in vivo, (L.) Jacq.; conditions: postemergence
Procedure, shortened: as §1

[4] = test system: ECHCG (Echinochloa crus-galli); test: Postemergence herbicidal evaluation; type: in vivo, (L.) Beau; conditions: postemergence
Procedure, shortened: as §1

[5] = test system: SETVI (Setaria viridis); test: Postemergence herbicidal evaluation; type: in vivo, (L.) Beau; conditions: postemergence
Procedure, shortened: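 Ratings use a 0-9 visual scale covering stand, vigor, malformation, size, chlorosis and appearance versus a control, scored 4-5 weeks post-spray. Roughly two-week-old seedlings received about 0.0040-1.000 kg/ha active, applied in 50/50 acetone/water with 0.5% TWEEN 20. Multiple tests per compound were averaged.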

[6] = test system: GLXMAW (Soybean, Williams); test: Postemergence herbicidal evaluation; type: in vivo, Glycine max, (L.) Merr. cv Williams; conditions: postemergence
Procedure, shortened: as §1

[7] = test system: ORYSAT (Rice, Tebonnet); test: Postemergence herbicidal evaluation; type: in vivo, Oryza sativa, (L.) Tebonnet; conditions: postemergence
Procedure, shortened: as §1

[8] = test system: ZEAMX (Corn, Field); test: Postemergence herbicidal evaluation; type: in vivo, Zea mays, L.; conditions: postemergence
Procedure, shortened: as §1

[9] = test system: AMBEL (Ambrosia artemisifolia); test: Preemergence herbicidal evaluation; type: in vivo, L.; conditions: rated 4-5 weeks after treatment
Procedure, shortened: (§2)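 Seeds mixed with potting soil were planted atop about one inch of soil, then sprayed with test compound in aqueous acetone. Cups were kept in the greenhouse and rated visually 4–5 weeks after treatment on a 0–9 scale against untreated control.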

[10] = test system: CASOB (Cassia obtusifolia); test: Preemergence herbicidal evaluation; type: in vivo, L.; conditions: rated 4-5 weeks after treatment
Procedure, shortened: as §2

[11] = test system: CHEAL (Chenopodium album); test: Preemergence herbicidal evaluation; type: in vivo, L.; conditions: rated 4-5 weeks after treatment
Procedure, shortened: as §2

[12] = test system: IPOHE (Ipomoea hederacea); test: Preemergence herbicidal evaluation; type: in vivo, (L.) Jacq.; conditions: rated 4-5 weeks after treatment
[13] = test system: ECHCG (Echinochloa crus-galli); test: Preemergence herbicidal evaluation; type: in vivo, (L.) Beau; conditions: rated 4-5 weeks after treatment
Procedure, shortened: as §2

[14] = test system: SETVI (Setaria viridis); test: Preemergence herbicidal evaluation; type: in vivo, (L.) Beau; conditions: rated 4-5 weeks after treatment
Procedure, shortened: as §2

[15] = test system: ORYSAT (Rice, Tebonnet); test: Preemergence herbicidal evaluation; type: in vivo, Oryza sativa, (L.) Tebonnet; conditions: rated 4-5 weeks after treatment
[16] = test system: ECHORC (Echinochloa oryzoides); test: Flooded paddy, preemergence weed control; type: in vivo, Echinochloa oryzoides (Ard.) Fritsch.; conditions: rated 3-4 weeks after treatment, 0-9 rating scale
Procedure, shortened: (§3)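 Visual 0-9 rating versus control, scoring stand, vigor, malformation, size, chlorosis and overall appearance. Silt loam soil, propagules in top 0.5 cm; flood depth 1.5–3 cm held for the whole test; greenhouse.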

[17] = test system: CYPIR (Cyperus iria); test: Flooded paddy, preemergence weed control; type: in vivo; conditions: rated 3-4 weeks after treatment, 0-9 rating scale
Procedure, shortened: as §3

[18] = test system: MOOVA (Monochoria vaginalis); test: Flooded paddy, preemergence weed control; type: in vivo, Presl.; conditions: rated 3-4 weeks after treatment, 0-9 rating scale
Procedure, shortened: as §3

[19] = test system: SAGPY (Sagittaria pygmaea); test: Flooded paddy, preemergence weed control; type: in vivo, L.; conditions: rated 3-4 weeks after treatment, 0-9 rating scale
Procedure, shortened: as §3

[20] = test system: ORYSAT (Rice, Tebonnet); test: Flooded paddy, post-transplant rice tolerance; type: in vivo, Oryza sativa, (L.) Tebonnet; conditions: flooded paddy, post-transplant rice, rated 3-4 weeks after treatment, 0-9 rating scale
Procedure, shortened: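 Two ten-day-old seedlings were transplanted into silt loam, flooded and held at 1.5 to 3 cm water above the soil before herbicide treatment. Pots stayed in the greenhouse at that water level. Injury was scored visually on a 0-9 scale versus untreated control.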

Cc1sccc1-c1nsc2ccc(-n3c(=O)cc(C(F)(F)F)n(C)c3=O)cc12 [Compound 68, 2,4(1H,3H)-pyrimidinedione, 1-methyl-3-[3-(2-methyl-3-thienyl)-1,2-benzisothiazol-5-yl]-6-(trifluoromethyl)-]
5.5: ZEAMX herbicidal rating ([8]; rate 0.0320 kg/ha) | Preemergence herbicidal rating CASOB ([10]; Rate 0.2500 kg/ha)
4.5: Preemergence herbicidal rating IPOHE ([12]; Rate 0.2500 kg/ha)
9.0: ABUTH herbicidal rating ([1]; rate 0.0320 kg/ha) | ABUTH herbicidal rating ([1]; rate 0.0620 kg/ha) | GALAP herbicidal rating ([2]; rate 0.0320 kg/ha) | GALAP herbicidal rating ([2]; rate 0.0620 kg/ha) | IPOHE herbicidal rating ([3]; rate 0.0320 kg/ha) | IPOHE herbicidal rating ([3]; rate 0.0620 kg/ha) | Preemergence herbicidal rating AMBEL ([9]; Rate 0.2500 kg/ha) | Preemergence herbicidal rating CHEAL ([11]; Rate 0.0620 kg/ha) | Preemergence herbicidal rating CHEAL ([11]; Rate 0.1250 kg/ha) | Preemergence herbicidal rating CHEAL ([11]; Rate 0.2500 kg/ha) | Preemergence herbicidal rating ECHCG ([13]; Rate 0.1250 kg/ha) | Preemergence herbicidal rating ECHCG ([13]; Rate 0.2500 kg/ha) | Preemergence herbicidal rating SETVI ([14]; Rate 0.0620 kg/ha) | Preemergence herbicidal rating SETVI ([14]; Rate 0.1250 kg/ha) | Preemergence herbicidal rating SETVI ([14]; Rate 0.2500 kg/ha) | herbicidal rating, ECHORC ([16]; rate 0.1250 kg/ha) | herbicidal rating, CYPIR ([17]; rate 0.0320 kg/ha) | herbicidal rating, CYPIR ([17]; rate 0.1250 kg/ha) | herbicidal rating, MOOVA ([18]; rate 0.0320 kg/ha) | herbicidal rating, MOOVA ([18]; rate 0.1250 kg/ha) | herbicidal rating, SAGPY ([19]; rate 0.1250 kg/ha)
8.0: SETVI herbicidal rating ([5]; rate 0.0620 kg/ha)
5.0: ECHCG herbicidal rating ([4]; rate 0.0620 kg/ha) | ORYSAT herbicidal rating ([7]; rate 0.0620 kg/ha) | Preemergence herbicidal rating AMBEL ([9]; Rate 0.1250 kg/ha) | Preemergence herbicidal rating ORYSAT ([15]; Rate 0.2500 kg/ha)
4.0: ECHCG herbicidal rating ([4]; rate 0.0320 kg/ha) | SETVI herbicidal rating ([5]; rate 0.0320 kg/ha) | ORYSAT herbicidal rating ([7]; rate 0.0320 kg/ha)
6.5: GLXMAW herbicidal rating ([6]; rate 0.0320 kg/ha)
0.5: Preemergence herbicidal rating CASOB ([10]; Rate 0.0620 kg/ha)
2.5: herbicidal rating, ORYSAT (rice tolerance) ([20]; rate 0.0320 kg/ha)
6.0: ZEAMX herbicidal rating ([8]; rate 0.0620 kg/ha)
0.0: herbicidal rating, CYPIR ([17]; rate 0.0080 kg/ha) | herbicidal rating, SAGPY ([19]; rate 0.0080 kg/ha) | herbicidal rating, SAGPY ([19]; rate 0.0320 kg/ha)
3.0: Preemergence herbicidal rating CASOB ([10]; Rate 0.1250 kg/ha) | Preemergence herbicidal rating IPOHE ([12]; Rate 0.1250 kg/ha)
8.5: Preemergence herbicidal rating ECHCG ([13]; Rate 0.0620 kg/ha) | herbicidal rating, ECHORC ([16]; rate 0.0320 kg/ha)
2.0: Preemergence herbicidal rating ORYSAT ([15]; Rate 0.0620 kg/ha)
3.5: Preemergence herbicidal rating AMBEL ([9]; Rate 0.0620 kg/ha) | Preemergence herbicidal rating ORYSAT ([15]; Rate 0.1250 kg/ha) | herbicidal rating, ORYSAT (rice tolerance) ([20]; rate 0.1250 kg/ha)
7.0: GLXMAW herbicidal rating ([6]; rate 0.0620 kg/ha) | herbicidal rating, ECHORC ([16]; rate 0.0080 kg/ha) | herbicidal rating, MOOVA ([18]; rate 0.0080 kg/ha)
1.5: Preemergence herbicidal rating IPOHE ([12]; Rate 0.0620 kg/ha) | herbicidal rating, ORYSAT (rice tolerance) ([20]; rate 0.0080 kg/ha)
